Earlier results in patent EP0424512B1, “ANTIMETASTATIC PEPTIDES” (SRI INTERNATIONAL, priority 1989, dated 1990).

System: human fibrosarcoma HT-1080 and Chinese hamster ovary cells
Conditions: relative to laminin

**Q.** With “CDPGYIGSR [nine amino acid peptide from domain III of laminin B₁ chain]” as the sequence, how does the “activity of laminin in cell attachment on a molar basis” value read?
**A.** 0.5-1%
